Measured values reported in patent publication US20080009546A1 (Chevron U.S.A. Inc., priority 2005, published 2008).
Like-named read-outs stand apart in the source and are kept apart here.

Key:
NMDA receptor = assay: [3H]MK-801 binding assay, NMDA receptors in guinea pig brain membranes; settings: for Relative affinity: compared to that of Memantine
Description: Hartley guinea pigs were sacrificed, and their brains were quickly removed and weighed. The brains then were homogenized in 50 mM Tris HCl buffer, pH 7.7, using a Polytron homogenizer. The homogenate was centrifuged at 40,000×g for 15 min, rehomogenized, and centrifuged again. The final pellet was resuspended in Tris-HCl, pH 7.7, at a final concentration of 6.67 mg original wet weight of tissue/ml. […] The samples were then filtered through glass fiber filters on a Tomtec cell harvester. The filters were washed 3 times with 3 ml of cold buffer. Filters were dried overnight and counted next day on a Wallac Betaplate Reader.
The binding experiments were conducted as follows. […] For each compound, graphs were prepared containing individual competition curves obtained for that compound. IC50 values and Hill coefficients were calculated using the program Prism. Ki values were calculated using the Chang Prusoff transformation: Ki=IC50/(1+L/Kd)
where L is radioligand concentration and Kd is the binding affinity of the radioligand, as determined previously by saturation analysis. […] In each experiment, one standard compound was simultaneously run on each 96 well plate.

[1] = system: primary neurons from rat cerebral cortex; assay: NMDA-induced LDH release assay in primary cortical neurons (neuroprotection); type: cell-based; parameters: Total LDH (Avg): unit not given here; settings: for % (Control Wash = 100) / Secreted LDH (Avg) / Secreted/(total + secreted) (Avg) / Total LDH (Avg): MDT compound 30 uM, 24 hour incubation
Description: The neuroprotective properties of drugs have been studied in vitro, using neurons cultured from cortex, cerebellum or retina. […] Neurotoxicity is determined in this assay by measuring lactate dehydrogenase (LDH), a method which is simple, accurate and reproducible. We conducted pilot studies to test if poly-lysine-coated plates would be suitable as a matrix upon which to plate fetal neurons, compared to astrocyte-coated plates. We also compared the use of growth medium to neurobasal medium supplemented with B27 in the pilot experiments. The concentrations of NMDA (300-500 μM), glycine (10-50 μM), and memantine (10-100 μM) were varied, and optimum concentrations and times determined from these pilot studies were then chosen for the main study. The assay is described below.
Fetal rat neocortical cells were cultured on a mouse astroglial feeder layer. To obtain mouse astroglial cells for the feeder layer, cortices were harvested from 1-day old Swiss Webster mice (Charles River, Hollister, Calif.) according to the procedure described by Rose et al (1993). After dissecting cortices in ice-cold dissecting medium, they were minced and incubated in 0.09% trypsin in media stock for 1 hr, followed by resuspension in growth medium containing 10% equine serum and 10% fetal bovine serum. A single-cell suspension was obtained by triturating through fire-bored glass pipettes, and the resulting cell suspension was plated at a density of 0.5-0.75 hemispheres/24-well plate/9.6 ml, with 0.4 ml/well. Plates were incubated in a humidified incubator at 37° C., 5% CO2. Astroglial cells become confluent in about 2-3 weeks, at which time these cultures are ready to be used as feeder layers upon which neuronal cultures can be plated. Neuronal cells were obtained from gestational Sprague-Dawley rats E16-E18, using a similar dissection procedure. Rat embryos were dissected to obtain cortical tissue, which was plated as a single-cell suspension at a density of 1.4 hemispheres/24-well plate/9.6 ml, with 0.4 ml/well. These cells were plated on the existing astroglial feeder layer, and were incubated at 37° C., 5% CO2. After 5 days in culture, cytosine arabinoside (10 μM) was added to the wells to inhibit glial cell proliferation, and after 24 hours, the medium was replaced with fresh growth medium. Cells were fed with fresh growth medium every 2 days, until the experiments were performed. For coating plates with poly-lysine, we used poly-d-lysine hydrobromide (Sigma Cat # P7280) at a concentration of 0.1 mg/ml to coat each well using a minimum volume of 0.2 ml/well. After coating for 5 minutes, the solution was aspirated and wells were rinsed thoroughly with sterile tissue culture grade water. After drying for 2 hours, plates were ready for use. Neuronal cultures were plated onto poly-lysine-coated plates at the same density as above. For the pilot study, some of the cultures were fed with 1:1 ratio of growth medium: neurobasal medium (GIBCO)+B-27 supplement (2%), while the rest of the cultures were fed with growth medium alone (Losi et al., 2006). For the main study, we used astroglial feeder layers to plate the neuronal cultures, and used a mix (1:1) of growth medium with neurobasal medium+B-27 supplement for feeding the cultures.
After 11-14 days in culture, neuronal cells were confluent and experiments were performed. Cells were washed twice using sterile Locke's buffer (154 mM NaCl, 5.6 mM KCl, 2.3 mM CaCl2, 3.6 mM NaHCO3, 5.5 mM D-glucose, 5 mM HEPES, pH 7.4), and then exposed to the various treatment compounds. […] After 15 minutes, cultures were washed twice and incubated overnight in media stock. After 24 hours, supernatants and lysates were collected to measure LDH activity. LDH activity was measured by the reduction of NAD, which was utilized in the stoichiometric conversion of a tetrazolium dye using a kit (Sigma TOX-7). Supernatants were removed from the wells and centrifuged before LDH measurements. The adherent cells were lysed to obtain total LDH. […]

[2] = guinea pig brain membrane preparation (Table 29), read-out: Ki
[3] = [3H]MK-801 (1 nM), guinea pig brain membrane preparation, read-out: Ki (binding affinity)
[4] = Plate #5, astrocyte-coated rat neurons, GM fed
[5] = Plate #4, poly-lysine-coated rat neurons, GM/NB + B-27 fed
[6] = astrocyte-coated rat neurons, GM/NB + B-27 fed

## 1,6-dimethyl-2-aminodiamantane mixture [MDT-6]
NMDA receptor
  Relative affinity: 0.159
NMDA receptor; [2]
  Ki: 4.6 ± 0.18 µM

## 1,6-dimethyl-4-aminodiamantane mixture [MDT-7]
NMDA receptor
  Relative affinity: 0.074
NMDA receptor; [2]
  Ki: 9.9 ± 0.45 µM

## 2-aminotriamantane [MDT-50]
NMDA receptor; [3]
  Ki: 19.1 µM
NMDA receptor
  Relative affinity: 0.038
[1]; two experiments, 300 uM NMDA + 50 μM glycine 15 minutes, LDH after 24 hours, read-out: average EC50 (±SD), NMDA-induced LDH release
  EC50: 107 ± 88.3 µM

## 3-amino-triamantane [MDT-48]
NMDA receptor; [3]
  Ki: 14 µM
NMDA receptor
  Relative affinity: 0.052

## CC12CC3(N)CC4C5CC(CC41)CC2C5C3 (single isomer, unassigned) [MDT-22 (prep from Example 4)]
NMDA receptor
  Relative affinity: 0.332
NMDA receptor; [2]
  Ki: 2.2 ± 0.9 µM

## CC12CC3(N)CC4C5CC(CC41)CC2C5C3 (single isomer, unassigned) [MDT-22 (prep from Example 7)]
NMDA receptor
  Relative affinity: 0.070
NMDA receptor; [2]
  Ki: 10.5 ± 1 µM

## NC12CC3CC4C5CC(CC41)CC2C5C3 [MDT #1]
[1]; [4]
  % (Control Wash = 100): 99%
  Secreted LDH (Avg): 0.18
  Secreted/(total + secreted) (Avg): 5.81
  Total LDH (Avg): 2.96

## NC12CC3CC4C5CC(CC41)CC2C5C3 [MDT #2]
[1]; [4]
  % (Control Wash = 100): 118%
  Secreted LDH (Avg): 0.23
  Secreted/(total + secreted) (Avg): 6.93
  Total LDH (Avg): 3.09

## NC12CC3C4CC5(N)CC3C(C1)C(C5)C4C2 [MDT #5]
[1]; [4]
  % (Control Wash = 100): 123%
  Secreted LDH (Avg): 0.25
  Secreted/(total + secreted) (Avg): 7.21
  Total LDH (Avg): 3.27

## OC12CC3CC4C1CC1CC4C(O)(C3)C2C1 [MDT #13]
[1]; [5]
  % (Control Wash = 100): 139%
  Secreted LDH (Avg): 0.54
  Secreted/(total + secreted) (Avg): 15.25
  Total LDH (Avg): 2.99
[1]; [6]
  % (Control Wash = 100): 276%
  Secreted LDH (Avg): 0.85
  Secreted/(total + secreted) (Avg): 19.97
  Total LDH (Avg): 3.41

## NC12CC3CC4C5CC(CC41)CC2C5C3 [MDT-1]
NMDA receptor
  Relative affinity: 0.097
NMDA receptor; [2]
  Ki: 7.5 ± 2.4 µM

## NC12CC3CC4C5CC(CC41)CC2C5C3 [MDT-2]
NMDA receptor
  Relative affinity: 0.114
NMDA receptor; [2]
  Ki: 6.4 ± 0.13 µM

## NC12CC3CC4C1CC1CC2C(C3)C4(N)C1 [MDT-4]
NMDA receptor
  Relative affinity: 0.007
NMDA receptor; [2]
  Ki: 99.6 ± 7.6 µM

## NC12CC3C4CC5(N)CC3C(C1)C(C5)C4C2 [MDT-5]
NMDA receptor
  Relative affinity: 0.003
NMDA receptor; [2]
  Ki: 268 ± 19 µM

## OC12CC3CC4C5CC(CC41)CC2C5C3 [MDT-10]
NMDA receptor; [2]
  Ki: > 1000 µM

## OC12CC3C4CC5CC3C(C1)C(C5)C4C2 [MDT-11]
NMDA receptor; [2]
  Ki: > 1000 µM

## OC12CC3CC4C1CC1CC4C(O)(C3)C2C1 [MDT-13]
NMDA receptor; [2]
  Ki: > 1000 µM

## OC12CC3C4CC5(O)CC3C(C1)C(C5)C4C2 [MDT-14]
NMDA receptor; [2]
  Ki: > 1000 µM

## OC12CC3C4CC5C6CC7(O)CC5C(C4C1)C(C2)(C7)C36 [MDT-15]
NMDA receptor; [2]
  Ki: > 1000 µM

## CC12CC3CC4C1CC1(N)CC2C(C3)C4(C)C1 [MDT-23 (prep from Example 4)]
NMDA receptor
  Relative affinity: 0.187
NMDA receptor; [2]
  Ki: 3.9 ± 0.07 µM

## CC12CC3CC4C1CC1(N)CC2C(C3)C4(C)C1 [MDT-23 (prep from Example 5)]
NMDA receptor
  Relative affinity: 0.243
NMDA receptor; [2]
  Ki: 3 ± 0.9 µM

## O=NC12CC3CC4C5CC(CC41)CC2C5C3 [MDT-26]
NMDA receptor; [2]
  Ki: > 1000 µM

## O=NC12CC3C4CC5CC3C(C1)C(C5)C4C2 [MDT-27]
NMDA receptor; [2]
  Ki: > 1000 µM

## CC12CC3(N)CC4C5CC(N)(CC41)CC2C5C3 [MDT-28, 1-methyl-4,9-diaminodiamantane]
NMDA receptor; [2]
  Ki: > 1000 µM

## CC12CC3CC4C1CC1(N)CC2C(C3)C4(N)C1 [MDT-29]
NMDA receptor
  Relative affinity: 0.018
NMDA receptor; [2]
  Ki: 41 ± 10.7 µM

## CC12CC3CC4C1CC1(N)CC2C(C3)C4(C)C1 [MDT-33, 1,6-dimethyl-4-aminodiamantane]
NMDA receptor
  Relative affinity: 0.094
NMDA receptor; [2]
  Ki: 7.8 ± 0.9 µM

## O=C(O)C12CC3CC4C5CC(CC41)CC2C5C3 [MDT-38]
NMDA receptor; [2]
  Ki: > 1000 µM

## O=C(O)C12CC3CC4C1CC1CC2C(C3)C4(C(=O)O)C1 [MDT-39]
NMDA receptor; [2]
  Ki: > 1000 µM

## OC12C3CC4CC5C3CC3C6CC(CC31)CC2(C4)C56 [MDT-40]
NMDA receptor; [2]
  Ki: > 1000 µM

## OC12CC3CC4C1CC1C5CC6CC1C2C(C6)(C3)C54 (centres unmarked) [MDT-41]
NMDA receptor; [2]
  Ki: > 1000 µM

## OC12CC3C4CC5C6CC7CC5C(C4C1)C(C7)(C2)C63 [MDT-42]
NMDA receptor; [2]
  Ki: > 1000 µM

## CC12CC3CC4C1CC1CC2C(O)(C3)C4(C)C1 (centres unmarked) [MDT-44, 1,6-dimethyl-2-hydroxydiamantane]
NMDA receptor; [2]
  Ki: > 1000 µM

## CC12CC3CC4C1CC1(O)CC2C(C3)C4(C)C1 [MDT-45, 1,6-dimethyl-4-hydroxydiamantane]
NMDA receptor
  Relative affinity: 0.007
NMDA receptor; [2]
  Ki: 98.6 ± 0.1 µM

## CC12CC3CC4C1CC1(C(=O)O)CC2C(C3)C4(C)C1 [MDT-46, 1,6-dimethyl-4-diamantanecarboxylic acid]
NMDA receptor; [2]
  Ki: > 1000 µM

## CC12CC3C4CC5(C)CC3C(C1)C(O)(C5)C4C2 [MDT-47, 4,9-dimethyl-1-hydroxydiamantane]
NMDA receptor; [2]
  Ki: > 1000 µM

## NC12CC3C4CC5C6CC7CC5C(C4C1)C(C7)(C2)C63 [MDT-49, 9-amino-triamantane]
NMDA receptor; [3]
  Ki: 389 µM
NMDA receptor
  Relative affinity: 0.002

## CC12CC3C4CC5(C)CC3C(C1)C(C(=O)O)(C5)C4C2 [MDT-52, 4,9-dimethyl-1-diamantanecarboxylic acid]
NMDA receptor; [2]
  Ki: > 1000 µM

## CC12CC3C4CC5(C)CC(C(C1)C3(N)C5)C4(N)C2 [MDT-53, 4,9-dimethyl-1,6-diaminodiamantane]
NMDA receptor
  Relative affinity: 0.007
NMDA receptor; [2]
  Ki: 112 ± 14 µM

## NCC12CC3CC4C5CC(CC41)CC2C5C3 [MDT-56]
NMDA receptor
  Relative affinity: 0.074
NMDA receptor; [2]
  Ki: 9.8 ± 4.5 µM

## CC(N)C12CC3CC4C5CC(CC41)CC2C5C3 (centres unmarked) [MDT-57]
NMDA receptor
  Relative affinity: 0.183
NMDA receptor; [2]
  Ki: 4 ± 0.1 µM

## O=C1C2CC3C4CC5CC3C1C(C5)C4C2 [MDT-59]
NMDA receptor; [2]
  Ki: > 1000 µM

## CC12CC3C4CC5CC3C(C1)C(C5)C4C2 [MDT-60]
NMDA receptor; [2]
  Ki: > 1000 µM

## Cl.NCC12CC3C4CC5CC3C(C1)C(C5)C4C2 [MDT-61]
NMDA receptor
  Relative affinity: 0.091
NMDA receptor; [2]
  Ki: 8 ± 0.9 µM

## CC12CC3C4CC5(C)CC3C(C1)C(CN)(C5)C4C2 [MDT-63]
NMDA receptor
  Relative affinity: 0.143
NMDA receptor; [2]
  Ki: 5.1 ± 0.3 µM

## CC12CC3CC4C1CC1(CN)CC2C(C3)C4(C)C1 [MDT-65]
NMDA receptor
  Relative affinity: 0.100
NMDA receptor; [2]
  Ki: 7.3 ± 1.1 µM

## mixture of 1-amino-4-methyldiamantane and 2-amino-4-methyldiamantane [MDT-32]
NMDA receptor
  Relative affinity: 0.064
NMDA receptor; [2]
  Ki: 11.4 ± 3.7 µM

## mixture of 1-methyl-2-aminodiamantane and 1-methyl-6-aminodiamantane [MDT-31]
NMDA receptor
  Relative affinity: 0.187
NMDA receptor; [2]
  Ki: 3.9 ± 0.2 µM

## mixture of 4-methyl-9-aminodiamantane and 4-aminodiamantane [MDT-34]
NMDA receptor; [2]
  Ki: > 1000 µM
